Our source for the Ki values is patent US20190085024A1, “Alpha-Ketoamide Inhibitors Of Cysteine Proteases” (Phelix Therapeutics, priority 2017, published 2019).

Some results are limits rather than exact numbers.

One test deals with Cathepsin B (Homo sapiens, UniProt P07858). The test is described as follows: Cathepsin B enzyme assay. Conditions: Cat B (μM), Ki by Morrison equation; pH 6.0, substrate Z-Phe-Arg-Amc.
For another test, the target named is Cathepsin L (Homo sapiens, UniProt P07711). Description: Cathepsin L enzyme assay. The class given is biochemical. Conditions: Ki by Morrison equation; pH 5.5, substrate Z-Phe-Arg-Amc; read-out: Cat L. An excerpt:
Two wells contained DMSO only for controls.
Velocity was converted to μM/sec.

A further test concerns the target Calpain. Description: Calpain enzyme assay. The class given is biochemical. The settings on record: Ki by Morrison equation; pH 7.5, 5 mM CaCl2.

Cathepsin L, sequence (P07711 114-333, species assumed): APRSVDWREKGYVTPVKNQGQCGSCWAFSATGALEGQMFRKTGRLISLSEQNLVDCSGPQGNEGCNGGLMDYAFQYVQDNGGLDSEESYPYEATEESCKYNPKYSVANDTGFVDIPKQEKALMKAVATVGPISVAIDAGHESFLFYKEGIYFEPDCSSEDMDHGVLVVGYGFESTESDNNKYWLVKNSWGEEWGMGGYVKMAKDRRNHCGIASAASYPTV

Take `CCC(C)C(NC(=O)C(=O)C(C)NC(=O)Cc1ccccc1)C(=O)NC(C)(C)C(=O)O` (stereo not drawn) [PHELIX132, 2-methyl-2-(3-methyl-2-(2-oxo-3-(2-phenylacetamido)butanamido)pentanamido)propanoic acid]: the Ki on Cathepsin B amounted to 702 µM; on Cathepsin L it was 134000 nM.

Consider `CC[C@H](C)[C@H](NC(=O)C(=O)C(C)NC(=O)Cc1ccccc1)C(=O)N1CCC[C@H]1C(=O)O` (stereo partly drawn) [PHELIX138, (2-oxo-3-(2-phenylacetamido)butanoyl)isoleucylproline], for which the Ki on Cathepsin B amounted to 27.8 µM; at Cathepsin L it was 69800 nM.

With `CCC(C)C(NC(=O)C(=O)C(C)(C)NC(=O)Cc1ccccc1)C(=O)NC(C)(C)C(=O)O` (stereo not drawn) [PHELIX139, 2-methyl-2-(3-methyl-2-(3-methyl-2-oxo-3-(2-phenylacetamido)butanamido)pentanamido)propanoic acid], the Ki turned out to be 1130 µM on Cathepsin B and 57400 nM at Cathepsin L.

As to `CC[C@H](C)[C@H](NC(=O)C(=O)C(C)NC(=O)C(Cc1ccccc1)NC(=O)Cc1ccccc1)C(=O)N1CCC[C@H]1C(=O)O` (stereo partly drawn) [PHELIX155, (2-oxo-3-(3-phenyl-2-(2-phenylacetamido)propanamido)butanoyl)isoleucylproline], the Ki worked out at 0.0215 µM at Cathepsin B and 300 nM at Cathepsin L.

Turning to `CC(NC(=O)C(Cc1ccccc1)NC(=O)Cc1ccccc1)C(=O)C(=O)NC(Cc1ccc2ccccc2c1)C(=O)NC(C)(C)C(=O)O` (stereo not drawn) [PHELIX158, 12-benzyl-2,2,9-trimethyl-5-(naphthalen-2-ylmethyl)-4,7,8,11,14-pentaoxo-15-phenyl-3,6,10,13-tetraazapentadecanoic acid], the Ki was 0.439 µM on Cathepsin B and 141 nM at Cathepsin L.

For `CCC(C)C(NC(=O)C(=O)C(C)NC(=O)C(Cc1ccccc1)NC(=O)Cc1ccc2ccccc2c1)C(=O)NC(C)(C)C(=O)O` (stereo not drawn) [PHELIX161, 12-benzyl-5-(sec-butyl)-2,2,9-trimethyl-15-(naphthalen-2-yl)-4,7,8,11,14-pentaoxo-3,6,10,13-tetraazapentadecanoic acid], the Ki stood at 0.0549 µM on Cathepsin B and 1990 nM on Cathepsin L.

On to `CC(NC(=O)C(Cc1ccccc1)NC(=O)Cc1ccccc1)C(=O)C(=O)NC(Cc1cccc2ccccc12)C(=O)NC(C)(C)C(=O)O` (stereo not drawn) [PHELIX162, 12-benzyl-2,2,9-trimethyl-5-(naphthalen-1-ylmethyl)-4,7,8,11,14-pentaoxo-15-phenyl-3,6,10,13-tetraazapentadecanoic acid], for which the Ki was determined as 0.03 µM on Cathepsin B and 402 nM at Cathepsin L.

`CCC(C)C(NC(=O)C(CC(C)C)NC(=O)OCc1ccccc1)C(=O)C(=O)NCC(=O)NC(Cc1ccc(C#N)cc1)C(N)=O` (stereo not drawn) [PHELIX350, benzyl (1-((1-((2-((1-amino-3-(4-cyanophenyl)-1-oxopropan-2-yl)amino)-2-oxoethyl)amino)-4-methyl-1,2-dioxohexan-3-yl)amino)-4-methyl-1-oxopentan-2-yl)carbamate]: the results for the Ki on Cathepsin L and at Calpain were 4.2 nM and 3.45 nM, respectively.

Take `CCC(C)C(NC(=O)C(CC(C)C)NC(=O)Cc1cccnc1)C(=O)C(=O)NCC(=O)N(C)C(Cc1ccccc1)C(N)=O` (stereo not drawn) [PHELIX351, N-(2-((1-amino-1-oxo-3-phenylpropan-2-yl)(methyl)amino)-2-oxoethyl)-4-methyl-3-(4-methyl-2-(2-(pyridin-3-yl)acetamido)pentanamido)-2-oxohexanamide]: the results for the Ki at Cathepsin L and at Calpain were 0.45 nM and 0.3 nM, respectively.

As to `CCC(C)C(NC(=O)C(CC(C)C)NC(=O)CN1CCOCC1)C(=O)C(=O)NCC(=O)N(C)C(Cc1ccccc1)C(N)=O` (stereo not drawn) [PHELIX352, N-(2-((1-amino-1-oxo-3-phenylpropan-2-yl)(methyl)amino)-2-oxoethyl)-4-methyl-3-(4-methyl-2-(2-morpholinoacetamido)pentanamido)-2-oxohexanamide], the Ki at Cathepsin L stood at 0.48 nM; on Calpain, 1.93 nM.

With `CCC(C)C(NC(=O)C(CC(C)C)NC(=O)Cc1ccncc1)C(=O)C(=O)NCC(=O)N(C)C(Cc1ccccc1)C(N)=O` (stereo not drawn) [PHELIX353, N-(2-((1-amino-1-oxo-3-phenylpropan-2-yl)(methyl)amino)-2-oxoethyl)-4-methyl-3-(4-methyl-2-(2-(pyridin-4-yl)acetamido)pentanamido)-2-oxohexanamide], the results for the Ki at Cathepsin L and at Calpain were 0.55 nM and 3.03 nM, respectively.

For the compound `CCC(C)C(NC(=O)C(CC(C)C)NC(=O)CN1CCOCC1)C(=O)C(=O)NC(Cc1ccc2ccccc2c1)C(N)=O` (stereo not drawn) [PHELIX354, N-(1-amino-3-(naphthalen-2-yl)-1-oxopropan-2-yl)-4-methyl-3-(4-methyl-2-(2-morpholinoacetamido)pentanamido)-2-oxohexanamide], the Ki on Cathepsin L was determined as 19.6 nM; at Calpain, 10.1 nM.

Consider `CCC(C)C(NC(=O)C(CC(C)C)NC(=O)OCc1ccccc1)C(=O)C(=O)NCC(=O)NC(Cc1ccc(OC)cc1)C(N)=O` (stereo not drawn) [PHELIX355, benzyl (1-((1-((2-((1-amino-3-(4-methoxyphenyl)-1-oxopropan-2-yl)amino)-2-oxoethyl)amino)-4-methyl-1,2-dioxohexan-3-yl)amino)-4-methyl-1-oxopentan-2-yl)carbamate], for which the Ki on Cathepsin L was determined as 1.57 nM; at Calpain, 1.71 nM.

For the compound `CCC(C)C(NC(=O)C(CC(C)C)NC(=O)OCc1ccccc1)C(=O)C(=O)NCC(=O)NC(Cc1cccnc1)C(N)=O` (stereo not drawn) [PHELIX356, benzyl (1-((1-((2-((1-amino-1-oxo-3-(pyridin-3-yl)propan-2-yl)amino)-2-oxoethyl)amino)-4-methyl-1,2-dioxohexan-3-yl)amino)-4-methyl-1-oxopentan-2-yl)carbamate], the Ki amounted to 11.2 nM on Cathepsin L and 9.17 nM at Calpain.

For `CCC(C)C(NC(=O)C(CC(C)C)NC(=O)OCc1ccccc1)C(=O)C(=O)NCC(=O)NC(Cc1ccncc1)C(N)=O` (stereo not drawn) [PHELIX357, benzyl (1-((1-((2-((1-amino-1-oxo-3-(pyridin-4-yl)propan-2-yl)amino)-2-oxoethyl)amino)-4-methyl-1,2-dioxohexan-3-yl)amino)-4-methyl-1-oxopentan-2-yl)carbamate], the Ki turned out to be 4.39 nM at Cathepsin L and 15.5 nM at Calpain.

`CCC(C)C(NC(=O)C(CC(C)C)NC(=O)OCc1ccccc1)C(=O)C(=O)NC(Cc1cccc(F)c1)C(N)=O` (stereo not drawn) [PHELIX359, benzyl (1-((1-((1-amino-3-(3-fluorophenyl)-1-oxopropan-2-yl)amino)-4-methyl-1,2-dioxohexan-3-yl)amino)-4-methyl-1-oxopentan-2-yl)carbamate]: the Ki on Cathepsin L came out at 0.73 nM; on Calpain, 2.03 nM.

Take `CCC(C)C(NC(=O)C(CC(C)C)NC(=O)OCc1ccccc1)C(=O)C(=O)NC(Cc1ccc2ccccc2c1)C(=O)N(C)C` (stereo not drawn) [PHELIX360, benzyl (1-((1-((1-(dimethylamino)-3-(naphthalen-2-yl)-1-oxopropan-2-yl)amino)-4-methyl-1,2-dioxohexan-3-yl)amino)-4-methyl-1-oxopentan-2-yl)carbamate]: the figures for the Ki on Cathepsin L and on Calpain were 29.1 nM and 44.1 nM, respectively.

Take `CCC(C)C(NC(=O)C(CC(C)C)NC(=O)OCc1ccccc1)C(=O)C(=O)NC(Cc1ccc2ccccc2c1)C(=O)NC1CC1` (stereo not drawn) [PHELIX361, benzyl (1-((1-((1-(cyclopropylamino)-3-(naphthalen-2-yl)-1-oxopropan-2-yl)amino)-4-methyl-1,2-dioxohexan-3-yl)amino)-4-methyl-1-oxopentan-2-yl)carbamate]: the Ki on Cathepsin L is 23.7 nM; on Calpain, 41.5 nM.

For the compound `CCC(C)C(NC(=O)C(CC(C)C)NC(=O)OCc1ccccc1)C(=O)C(=O)N1CC(C(=O)NCc2cncnc2)C1` (stereo not drawn) [PHELIX362, benzyl (4-methyl-1-((4-methyl-1,2-dioxo-1-(3-((pyrimidin-5-ylmethyl)carbamoyl)azetidin-1-yl)hexan-3-yl)amino)-1-oxopentan-2-yl)carbamate], the Ki on Cathepsin L is 157 nM; at Calpain, 630 nM.

For the compound `CCC(C)C(NC(=O)C(CC(C)C)NC(=O)OCc1ccccc1)C(=O)C(=O)N1CC(C(=O)NCc2ccc3ccccc3c2)C1` (stereo not drawn) [PHELIX363, benzyl (4-methyl-1-((4-methyl-1-(3-((naphthalen-2-ylmethyl)carbamoyl)azetidin-1-yl)-1,2-dioxohexan-3-yl)amino)-1-oxopentan-2-yl)carbamate], the Ki on Cathepsin L is 19.4 nM; at Calpain, 178 nM.

With `CCC(C)C(NC(=O)C(CC(C)C)NC(=O)OCc1ccccc1)C(=O)C(=O)N1CC(C(=O)NCc2n[nH]c3c2CCC3)C1` (stereo not drawn) [PHELIX364, benzyl (4-methyl-1-((4-methyl-1,2-dioxo-1-(3-(((1,4,5,6-tetrahydrocyclopenta[c]pyrazol-3-yl)methyl)carbamoyl)azetidin-1-yl)hexan-3-yl)amino)-1-oxopentan-2-yl)carbamate], the Ki on Cathepsin L was found to be 117 nM; on Calpain, 32.1 nM.

For the compound `CCC(C)C(NC(=O)C(CC(C)C)NC(=O)Cc1cncnc1)C(=O)C(=O)NCC(=O)NC(Cc1ccc2ccccc2c1)C(N)=O` (stereo not drawn) [PHELIX365, N-(2-((1-amino-3-(naphthalen-2-yl)-1-oxopropan-2-yl)amino)-2-oxoethyl)-4-methyl-3-(4-methyl-2-(2-(pyrimidin-5-yl)acetamido)pentanamido)-2-oxohexanamide], the values for the Ki at Cathepsin L and at Calpain were 17.9 nM and 6.21 nM, respectively.

As for `CCC(C)C(NC(=O)C(CC(C)C)NC(=O)OCc1ccccc1)C(=O)C(=O)N1CC(C(=O)NCc2ccc(C(=N)N)cc2)C1` (stereo not drawn) [PHELIX366, benzyl (1-((1-(3-((4-carbamimidoylbenzyl)carbamoyl)azetidin-1-yl)-4-methyl-1,2-dioxohexan-3-yl)amino)-4-methyl-1-oxopentan-2-yl)carbamate], the figures for the Ki at Cathepsin L and on Calpain were 137 nM and 442 nM, respectively.

In the case of `CC[C@H](C)C(NC(=O)[C@H](CC(C)C)NC(=O)OCc1ccccc1)C(=O)C(=O)N1CC(C(=O)O)C1` (stereo partly drawn) [PHELIX367, 1-(3-(2-(((benzyloxy)carbonyl)amino)-4-methylpentanamido)-4-methyl-2-oxohexanoyl)azetidine-3-carboxylic acid], the Ki on Cathepsin L was 906 nM; at Calpain, above 1000 nM.
